According to US12077503B2, “Substituted cyclic amides and their use as herbicides” (FMC CORPORATION, priority 2015, dated 2024):

Columns and labels:
Assay type in all cases: in vivo
[1] = tested on: barnyardgrass (Echinochloa crus-galli); test: Test G Pre-Emergence Protocol; details: evaluated after 13 days
Description: (§1) Seeds of corn (Zea mays), giant foxtail (Setaria faberi), barnyardgrass (Echinochloa crus-galli), ivy-leaved morning glory (Ipomoea hederacea), redroot pigweed (Amaranthus retroflexus) and velvetleaf (Abutilon theophrasti) were sown in standard soil in pots. After cultivation for one day under controlled conditions in a glasshouse (at 24/16° C., day/night; 14 hours light; 65% humidity), the plants were sprayed with an aqueous spray solution derived from the formulation of the technical active ingredient in acetone/water (50:50) solution containing 0.5% Tween 20 (polyoxyethylene sorbitan monolaurate, CAS RN 9005-64-5) to give a final dose of 15.625, 62.5 or 250 g/ha of test compound.
(§2) The test plants were then grown on under controlled conditions in a glasshouse (at 24/16° C., day/night; 14 hours light; 65% humidity) and watered twice daily. After 13 days the test was evaluated (100=total damage to plant; 0=no damage to plant). A dash (-) means no test result.

corn (Zea mays) [2] = test: Test G Pre-Emergence Protocol; details: evaluated after 13 days
Description: as §1, §2

[3] = tested on: giant foxtail (Setaria faberi); test: Test G Pre-Emergence Protocol; details: evaluated after 13 days
Description: as §1, §2

[4] = tested on: ivy-leaved morning glory (Ipomoea hederacea); test: Test G Pre-Emergence Protocol; details: evaluated after 13 days; for Morningglory, Ivy-leaved damage rating (100=total damage to plant; 0=no damage to plant): 250 g ai/ha
Description: as §1, §2

[5] = tested on: redroot pigweed (Amaranthus retroflexus); test: Test G Pre-Emergence Protocol; details: evaluated after 13 days
Description: as §1, §2

[6] = tested on: velvetleaf (Abutilon theophrasti); test: Test G Pre-Emergence Protocol; details: evaluated after 13 days
Description: as §1, §2

[7] = tested on: barnyardgrass (Echinochloa crus-galli); test: Test G Post-Emergence Protocol
Description: as §1, with “8 days” for “one day”
as §2

corn (Zea mays) [8] = test: Test G Post-Emergence Protocol
Description: as §1, with “8 days” for “one day”
as §2

[9] = tested on: giant foxtail (Setaria faberi); test: Test G Post-Emergence Protocol
Description: as §1, with “8 days” for “one day”
as §2

[10] = tested on: ivy-leaved morning glory (Ipomoea hederacea); test: Test G Post-Emergence Protocol
Description: as §1, with “8 days” for “one day”
as §2

[11] = tested on: redroot pigweed (Amaranthus retroflexus); test: Test G Post-Emergence Protocol
Description: as §1, with “8 days” for “one day”
as §2

[12] = tested on: velvetleaf (Abutilon theophrasti); test: Test G Post-Emergence Protocol
Description: as §1, with “8 days” for “one day”
as §2

[13] = 62.5 g ai/ha, 100=total damage to plant, 0=no damage to plant
[14] = 15.625 g ai/ha, evaluated after 13 days (100=total damage to plant; 0=no damage to plant)
[15] = 62.5 g ai/ha, evaluated after 13 days
[16] = 250 g ai/ha, evaluated after 13 days

COc1c(Cl)ccc([C@H]2CN(C)C(=O)[C@@H]2C(=O)Nc2cccc(F)c2F)c1F (racemic) [Compound 1476]
10%: plant injury at 15.625 g/ha (corn (Zea mays) [8]; Zea mays, post-emergence, 312 h, 15.625 g ai/ha, evaluated after 13 days (100=total damage to plant; 0=no damage to plant), read-out: Corn damage rating) | pest or weed control at 15.625 g/ha ([11]; Amaranthus retroflexus, post-emergence, 312 h, 15.625 g ai/ha, evaluated after 13 days (100=total damage to plant; 0=no damage to plant), read-out: Pigweed, Redroot damage rating) | pest or weed control at 250 g/ha ([11]; Amaranthus retroflexus, post-emergence, 312 h, 250 g ai/ha, evaluated after 13 days, read-out: damage to plant, Pigweed, Redroot (100=total damage to plant; 0=no damage to plant)) | pest or weed control at 15.625 g/ha ([12]; Abutilon theophrasti, post-emergence, 312 h, 15.625 g ai/ha, evaluated after 13 days (100=total damage to plant; 0=no damage to plant), read-out: Velvetleaf damage rating) | pest or weed control at 250 g/ha ([12]; Abutilon theophrasti, post-emergence, 312 h, 250 g ai/ha, evaluated after 13 days, read-out: damage to plant, Velvetleaf (100=total damage to plant; 0=no damage to plant))
20%: plant injury at 62.5 g/ha (corn (Zea mays) [8]; Zea mays, post-emergence, 312 h, 62.5 g ai/ha, evaluated after 13 days, read-out: Corn damage rating (100=total damage to plant; 0=no damage to plant)) | pest or weed control at 15.625 g/ha ([10]; Ipomoea, post-emergence, 312 h, 15.625 g ai/ha, evaluated after 13 days (100=total damage to plant; 0=no damage to plant), read-out: Morningglory, Ivy-leaved damage rating) | pest or weed control at 62.5 g/ha ([10]; Ipomoea, post-emergence, 312 h, 62.5 g ai/ha, evaluated after 13 days, read-out: Morningglory, Ivy-leaved damage rating (100=total damage to plant; 0=no damage to plant))
0%: plant injury at 62.5 g/ha (corn (Zea mays) [2]; Zea mays, pre-emergence, 312 h, 62.5 g ai/ha, 100=total damage to plant, 0=no damage to plant, read-out: plant damage rating, Corn) | pest or weed control at 15.625 g/ha ([4]; Ipomoea, pre-emergence, 312 h, 15.625 g ai/ha, read-out: Morning-glory, Ivy-leaved damage rating (100=total damage to plant; 0=no damage to plant)) | pest or weed control at 62.5 g/ha ([4]; Ipomoea, pre-emergence, 312 h, 62.5 g ai/ha, 100=total damage to plant, 0=no damage to plant, read-out: plant damage rating, Morningglory, Ivy-leaved) | pest or weed control at 62.5 g/ha ([5]; Amaranthus retroflexus, pre-emergence, 312 h, 62.5 g ai/ha, 100=total damage to plant, 0=no damage to plant, read-out: plant damage rating, Pigweed, Redroot) | pest or weed control at 62.5 g/ha ([6]; Abutilon theophrasti, pre-emergence, 312 h, 62.5 g ai/ha, 100=total damage to plant, 0=no damage to plant, read-out: plant damage rating, Velvetleaf) | pest or weed control at 62.5 g/ha ([11]; Amaranthus retroflexus, post-emergence, 312 h, 62.5 g ai/ha, evaluated after 13 days, read-out: Pigweed, Redroot damage rating (100=total damage to plant; 0=no damage to plant)) | pest or weed control at 62.5 g/ha ([12]; Abutilon theophrasti, post-emergence, 312 h, 62.5 g ai/ha, evaluated after 13 days, read-out: Velvetleaf damage rating (100=total damage to plant; 0=no damage to plant))
70: Foxtail, Giant damage rating (100=total damage to plant; 0=no damage to plant) ([3]; 15.625 g ai/ha)
70%: pest or weed control at 62.5 g/ha ([1]; Echinochloa crus-galli, pre-emergence, 312 h, 62.5 g ai/ha, 100=total damage to plant, 0=no damage to plant, read-out: plant damage rating, Barnyardgrass) | plant injury at 250 g/ha (corn (Zea mays) [8]; Zea mays, post-emergence, 312 h, 250 g ai/ha, evaluated after 13 days, read-out: damage to plant, Corn (100=total damage to plant; 0=no damage to plant)) | pest or weed control at 62.5 g/ha ([9]; Setaria faberi, post-emergence, 312 h, 62.5 g ai/ha, evaluated after 13 days, read-out: Foxtail, Giant damage rating (100=total damage to plant; 0=no damage to plant)) | pest or weed control at 250 g/ha ([9]; Setaria faberi, post-emergence, 312 h, 250 g ai/ha, evaluated after 13 days, read-out: damage to plant, Foxtail, Giant (100=total damage to plant; 0=no damage to plant))
40%: pest or weed control at 15.625 g/ha ([7]; Echinochloa crus-galli, post-emergence, 312 h, 15.625 g ai/ha, evaluated after 13 days (100=total damage to plant; 0=no damage to plant), read-out: Barnyardgrass damage rating)
50: Corn damage rating (100=total damage to plant; 0=no damage to plant) (corn (Zea mays) [2]; 250 g ai/ha)
80: Barnyardgrass damage rating (100=total damage to plant; 0=no damage to plant) ([1]; 250 g ai/ha) | Foxtail, Giant damage rating (100=total damage to plant; 0=no damage to plant) ([3]; 250 g ai/ha)
60%: pest or weed control at 15.625 g/ha ([1]; Echinochloa crus-galli, pre-emergence, 312 h, 15.625 g ai/ha, read-out: Barnyard grass damage rating (100=total damage to plant; 0=no damage to plant)) | pest or weed control at 250 g/ha ([7]; Echinochloa crus-galli, post-emergence, 312 h, 250 g ai/ha, evaluated after 13 days, read-out: damage to plant, Barnyardgrass (100=total damage to plant; 0=no damage to plant)) | pest or weed control at 15.625 g/ha ([9]; Setaria faberi, post-emergence, 312 h, 15.625 g ai/ha, evaluated after 13 days (100=total damage to plant; 0=no damage to plant), read-out: Foxtail, Giant damage rating) | pest or weed control at 250 g/ha ([10]; Ipomoea, post-emergence, 312 h, 250 g ai/ha, evaluated after 13 days, read-out: damage to plant, Morningglory, Ivy-leaved (100=total damage to plant; 0=no damage to plant))
50%: pest or weed control at 62.5 g/ha ([7]; Echinochloa crus-galli, post-emergence, 312 h, 62.5 g ai/ha, evaluated after 13 days, read-out: Barnyardgrass damage rating (100=total damage to plant; 0=no damage to plant))
0: Corn damage rating (100=total damage to plant; 0=no damage to plant) (corn (Zea mays) [2]; 15.625 g ai/ha) | Morningglory, Ivy-leaved damage rating (100=total damage to plant; 0=no damage to plant) [4] | Pigweed, Redroot damage rating (100=total damage to plant; 0=no damage to plant) ([5]; 15.625 g ai/ha) | Pigweed, Redroot damage rating (100=total damage to plant; 0=no damage to plant) ([5]; 250 g ai/ha) | Velvetleaf damage rating (100=total damage to plant; 0=no damage to plant) ([6]; 15.625 g ai/ha) | Velvetleaf damage rating (100=total damage to plant; 0=no damage to plant) ([6]; 250 g ai/ha)
80%: pest or weed control at 62.5 g/ha ([3]; Setaria faberi, pre-emergence, 312 h, 62.5 g ai/ha, 100=total damage to plant, 0=no damage to plant, read-out: plant damage rating, Foxtail, Giant)

CN1CC(c2ccc(C(F)(F)F)cc2)C(C(=O)Nc2[nH]cnc2[N+](=O)[O-])C1=O (racemic) [Compound 1507]
0: Barnyardgrass damage rating (100=total damage to plant; 0=no damage to plant) ([1]; 15.625 g ai/ha) | plant damage rating, Barnyardgrass [1, 13] | Barnyardgrass damage rating (100=total damage to plant; 0=no damage to plant) ([1]; 250 g ai/ha) | Corn damage rating (100=total damage to plant; 0=no damage to plant) (corn (Zea mays) [2]; 15.625 g ai/ha) | plant damage rating, Corn (corn (Zea mays) [2]; [13]) | Corn damage rating (100=total damage to plant; 0=no damage to plant) (corn (Zea mays) [2]; 250 g ai/ha) | Foxtail, Giant damage rating (100=total damage to plant; 0=no damage to plant) ([3]; 15.625 g ai/ha) | plant damage rating, Foxtail, Giant [3, 13] | Foxtail, Giant damage rating (100=total damage to plant; 0=no damage to plant) ([3]; 250 g ai/ha) | Morning-glory, Ivy-leaved damage rating (100=total damage to plant; 0=no damage to plant) ([4]; 15.625 g ai/ha) | plant damage rating, Morningglory, Ivy-leaved [4, 13] | Morningglory, Ivy-leaved damage rating (100=total damage to plant; 0=no damage to plant) [4] | Pigweed, Redroot damage rating (100=total damage to plant; 0=no damage to plant) ([5]; 15.625 g ai/ha) | plant damage rating, Pigweed, Redroot [5, 13] | Pigweed, Redroot damage rating (100=total damage to plant; 0=no damage to plant) ([5]; 250 g ai/ha) | Velvetleaf damage rating (100=total damage to plant; 0=no damage to plant) ([6]; 15.625 g ai/ha) | plant damage rating, Velvetleaf [6, 13] | Velvetleaf damage rating (100=total damage to plant; 0=no damage to plant) ([6]; 250 g ai/ha) | Barnyardgrass damage rating [7, 14] | Barnyardgrass damage rating (100=total damage to plant; 0=no damage to plant) [7, 15] | damage to plant, Barnyardgrass (100=total damage to plant; 0=no damage to plant) [7, 16] | Corn damage rating (corn (Zea mays) [8]; [14]) | Corn damage rating (100=total damage to plant; 0=no damage to plant) (corn (Zea mays) [8]; [15]) | damage to plant, Corn (100=total damage to plant; 0=no damage to plant) (corn (Zea mays) [8]; [16]) | Foxtail, Giant damage rating [9, 14] | Foxtail, Giant damage rating (100=total damage to plant; 0=no damage to plant) [9, 15] | damage to plant, Foxtail, Giant (100=total damage to plant; 0=no damage to plant) [9, 16] | Morningglory, Ivy-leaved damage rating [10, 14] | Morningglory, Ivy-leaved damage rating (100=total damage to plant; 0=no damage to plant) [10, 15] | damage to plant, Morningglory, Ivy-leaved (100=total damage to plant; 0=no damage to plant) [10, 16] | Pigweed, Redroot damage rating [11, 14] | Pigweed, Redroot damage rating (100=total damage to plant; 0=no damage to plant) [11, 15] | damage to plant, Pigweed, Redroot (100=total damage to plant; 0=no damage to plant) [11, 16] | Velvetleaf damage rating [12, 14] | Velvetleaf damage rating (100=total damage to plant; 0=no damage to plant) [12, 15] | damage to plant, Velvetleaf (100=total damage to plant; 0=no damage to plant) [12, 16]
